The EC50 is the concentration that produces a half-maximal response.

Experimental findings from PubChem BioAssay AID2525 (Broad Institute, 2010) are described below.

This test has as its system S. cerevisiae SKY197-pL101 polyadenylation reporter, beta-gal luminescence, 9 h. The test is described as follows: mRNA 3' processing disruption, beta-gal signal increase – luminescence, S. cerevisiae SKY197-pL101, dose response (AID 2525).

The source made the active and inactive calls.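 Rule for the calls: active = EC50 at most tenfold above the top concentration tested; inconclusive = flat fit with activity between 30% and 70%, or invalid fit; inactive = EC50 beyond tenfold above the top concentration.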

`Nc1ncnc2c1ncn2C1OC(CO)CC1O` (stereo unspecified): the EC50 was > 50 µM (inactive).
